Data: patent US20140023611A1 (priority 2010, published 2014)

Tests used:
human NaP2b (SLC34A2) = target: T1, human NaP2b (SLC34A2) (Homo sapiens, UniProt O95436); test: Inhibition of NaP2b-mediated Pi (33P) uptake in transfected HEK293 cells, human NaP2b; assay type: cell-based; details: read-out: pIC50 range for human NaP2b (converted)
T1 construct: host or cells: HEK293
T1 sequence (O95436 1-690): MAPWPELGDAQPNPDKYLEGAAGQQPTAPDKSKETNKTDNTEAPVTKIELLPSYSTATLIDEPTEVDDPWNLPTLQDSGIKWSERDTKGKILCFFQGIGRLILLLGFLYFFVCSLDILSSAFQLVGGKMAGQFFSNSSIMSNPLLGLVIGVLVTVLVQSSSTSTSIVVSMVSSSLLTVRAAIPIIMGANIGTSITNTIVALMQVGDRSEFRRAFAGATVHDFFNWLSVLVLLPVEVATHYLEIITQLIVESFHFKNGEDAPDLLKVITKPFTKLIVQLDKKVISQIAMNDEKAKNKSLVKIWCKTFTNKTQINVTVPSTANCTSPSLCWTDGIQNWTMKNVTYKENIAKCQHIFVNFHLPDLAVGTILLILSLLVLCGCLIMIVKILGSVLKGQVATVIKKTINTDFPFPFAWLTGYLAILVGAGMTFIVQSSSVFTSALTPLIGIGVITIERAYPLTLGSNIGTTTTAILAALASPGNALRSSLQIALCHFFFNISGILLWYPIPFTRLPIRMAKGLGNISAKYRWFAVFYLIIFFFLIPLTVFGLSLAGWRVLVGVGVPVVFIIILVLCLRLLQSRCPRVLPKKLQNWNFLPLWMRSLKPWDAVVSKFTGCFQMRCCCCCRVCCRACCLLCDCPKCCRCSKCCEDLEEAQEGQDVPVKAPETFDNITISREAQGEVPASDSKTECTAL
Procedure, shortened: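 Uptake of 33P-phosphate (100 uM KH2PO4 carrier, sodium vs choline buffer, pH 7.4) measured after 3-30 min at room temperature, with test compound at twelve concentrations from 0.1 nM to 30 uM in duplicate. Cells were HEK293 transfected with mutated human NaP2b (Thr insertion after 37, N39D) and treated with a PiT-silencing agent. pIC50 values from scintillation counts.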

[1] = Stability of compounds in simulated gastric fluid (SGF); assay type: in vitro ADME; details: simulated gastric fluid (3 mg/mL pepsin), incubation time 6 hr, relative to t=0
Procedure, shortened: (§1)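 Compounds at […] were incubated 3 or 6 hr in USP simulated gastric fluid with 3 mg/mL pepsin or simulated intestinal fluid with 3 mg/mL pancreatin. Remaining compound was quantified by HPLC-UV or HPLC-MS peak area % and reported as percent of the t=0 level in the same medium.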

[2] = Stability of compounds in simulated intestinal fluid (SIF); assay type: in vitro ADME; details: simulated intestinal fluid (3 mg/mL pancreatin), incubation time 6 hr, relative to t=0
Procedure, shortened: as §1

[3] = test system: Uptake of Phosphorus from the Intestine; test: In vivo co-dosing in chow (urine P out / P consumed); details: Rattus norvegicus, feed or water, rats, compound in chow, read-out: Mean % inhibition Urine Pout/P consumed; for inhibition in vivo at 100 mg/kg/day: mean drug dose 100 mg/kg/day; for inhibition in vivo at 120 mg/kg/day: mean drug dose 120 mg/kg/day; for inhibition in vivo at 50 mg/kg/day: mean drug dose 50 mg/kg/day
Procedure, shortened: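 Male 7-week-old rats were fed a synthetic diet (0.6% P, 0.6% Ca) for 4 days, then housed in metabolic cages with compound in chow at 1.3 mg/g (nominal 100 mg/kg/day). Urinary P was measured by ion chromatography over 24–96 h and related to dietary P consumed. Percentage inhibition was calculated against no-drug controls.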

IC50 (human NaP2b (SLC34A2)) [nM] | % remaining, SGF [1] | % remaining, SIF [2] | Structure (SMILES) | inhibition in vivo at 100 mg/kg/day [3] [%] | inhibition in vivo at 120 mg/kg/day [3] [%] | inhibition in vivo at 110 mg/kg/day ([3]; mean drug dose 110 mg/kg/day) [%] | inhibition in vivo at 50 mg/kg/day [3] [%]
< 1000 | 60-80% | >80% | O=C(O)c1cccc(SCc2cccc(C(=O)Nc3ccc(N4CCCCC4)cc3-c3cc(C(=O)NCc4cccc(C(F)(F)F)c4)ccn3)c2)c1 [Example 8.1, 3-(3-(4-(piperidin-1-yl)-2-(4-(3-(trifluoromethyl)benzylcarbamoyl)pyridin-2-yl)phenylcarbamoyl)benzylthio)benzoic acid] | – | – | – | –
1260 | >80% | >80% | O=C(NCc1cccc(C(F)(F)F)c1)c1ccnc(-c2cc(N3CCCCC3)ccc2NC(=O)c2cccc(CSc3ccc(C(=O)O)c(Br)c3)c2)c1 [Example 8.21] | – | – | – | –
1000 to 7940 | – | – | CN(CCN1CCOCC1)C(=O)c1cccc(C(=O)Nc2ccc(N3CCCCC3)cc2-c2cc(C(=O)NCc3cccc(C(F)(F)F)c3)ccn2)c1 [Example 80, N1-Methyl-N1-(2-morpholinoethyl)-N3-(4-(piperidin-1-yl)-2-(4-((3-(trifluoromethyl)benzyl)carbamoyl)pyridin-2-yl)phenyl)isophthalamide] | – | – | – | –
1000 to 7940 | >80% | 40-60% | CN(CCOCCOCCOCCC(=O)O)C(=O)Cc1cccc(SCc2cccc(C(=O)Nc3ccc(N4CCCCC4)cc3-c3cc(C(=O)NCc4cccc(C(F)(F)F)c4)ccn3)c2)c1 [Example 138] | – | – | – | –
1000 to 7940 | >80% | >80% | O=C(O)CCOCCOCCOCCOCCSCc1cccc(C(=O)Nc2ccc(N3CCCCC3)cc2-c2cc(C(=O)N[C@H]3CCCc4ccccc43)ccn2)c1 [Example 142, 1-(3-{[4-(piperidin-1-yl)-2-(4-{[(1S)-1,2,3,4-tetrahydronaphthalen-1-yl]carbamoyl}pyridin-2-yl)phenyl]carbamoyl}phenyl)-5,8,11,14-tetraoxa-2-thiaheptadecan-17-oic acid] | ≤ 10 | – | – | –
< 1000 | >80% | >80% | CCN(CC)c1ccc(NC(=O)c2cccc(CSc3cccc(CC(=O)N(C)CCOCCOCCOCCC(=O)O)c3)c2)c(-c2cc(C(=O)NCc3cccc(C(F)(F)F)c3)ccn2)c1 [Example 144, 3-(2-(2-(2-(2-(3-(3-(4-(diethylamino)-2-(4-(3-(trifluoromethyl)benzylcarbamoyl)pyridin-2-yl)phenylcarbamoyl)benzylthio)phenyl)-N-methylacetamido)ethoxy)ethoxy)ethoxy)propanoic acid] | ≤ 10 | – | – | –
1000 to 7940 | >80% | >80% | CCN(CC)c1ccc(NC(=O)c2cccc(CSCCOCCOCCOCCOCCOCCOCCOCCOCCC(=O)O)c2)c(-c2cc(C(=O)N[C@H]3CCCc4ccccc43)ccn2)c1 [Example 161, (S)-1-(3-(4-(diethylamino)-2-(4-(1,2,3,4-tetrahydronaphthalen-1-ylcarbamoyl)pyridin-2-yl)phenylcarbamoyl)phenyl)-5,8,11,14,17,20,23,26-octaoxa-2-thianonacosan-29-oic acid] | – | ≤ 10 | – | –
< 1000 | >80% | >80% | CCN(CC)c1ccc(NC(=O)c2cccc(CSCCOCCOCCOCCOCCC(=O)O)c2)c(-c2cc(C(=O)NCc3cccc(C(F)(F)F)c3)ccn2)c1 [Example 162, 1-(3-(4-(diethylamino)-2-(4-(3-(trifluoromethyl)benzylcarbamoyl)pyridin-2-yl)phenylcarbamoyl)phenyl)-5,8,11,14-tetraoxa-2-thiaheptadecan-17-oic acid] | 10 to 30 | – | – | –
1000 to 7940 | >80% | >80% | CCN(CC)c1ccc(NC(=O)c2cccc(CSCCOCCOCCOCCOCCOCCOCCOCCOCCC(=O)O)c2)c(-c2cc(C(=O)NCc3cccc(C(F)(F)F)c3)ccn2)c1 [Example 166, 1-(3-(4-(diethylamino)-2-(4-(3-(trifluoromethyl)benzylcarbamoyl)pyridin-2-yl)phenylcarbamoyl)phenyl)-5,8,11,14,17,20,23,26-octaoxa-2-thianonacosan-29-oic acid] | – | 10 to 30 | – | –
< 1000 | >80% | >80% | O=C(O)CCOCCOCCOCCNC(=O)c1cccc2c1ccn2Cc1cccc(C(=O)Nc2ccc(N3CCCCC3)cc2-c2cc(C(=O)N[C@H]3CCCc4ccccc43)ccn2)c1 [Example 181, (S)-1-oxo-1-(1-(3-(4-(piperidin-1-yl)-2-(4-(1,2,3,4-tetrahydronaphthalen-1-ylcarbamoyl)pyridin-2-yl)phenylcarbamoyl)benzyl)-1H-indol-4-yl)-5,8,11-trioxa-2-azatetradecan-14-oic acid] | – | ≤ 10 | – | –
1000 to 7940 | – | – | CCN(CC)c1ccc(NC(=O)c2cccc(C(=O)N(C)CCOCCOCCOCCC(=O)O)c2)c(-c2cc(C(=O)NCc3cccc(C(F)(F)F)c3)ccn2)c1 [Example 188, 1-(3-((4-(diethylamino)-2-(4-((3-(trifluoromethyl)benzyl)carbamoyl)pyridin-2-yl)phenyl)carbamoyl)phenyl)-2-methyl-1-oxo-5,8,11-trioxa-2-azatetradecan-14-oic acid] | – | – | 10 to 30 | –
< 1000 | >80% | >80% | CCCN(CCC)c1ccc(NC(=O)c2cccc(COCCOCCOCCOCCOCCOCCOCCOCCOC)c2)c(-c2cc(C(=O)NCc3cccc(C(F)(F)F)c3)ccn2)c1 [Example 200, 2-(2-(3-(2,5,8,11,14,17,20,23,26-nonaoxaheptacosyl)benzamido)-5-(dipropylamino)phenyl)-N-(3-(trifluoromethyl)benzyl)isonicotinamide] | 10 to 30 | – | – | –
1000 to 7940 | – | – | CCN(CC)c1ccc(NC(=O)c2cccc(CCCOCCOCCOCCOCCNS(=O)(=O)c3ccc(C(=O)N(CCOC)CCOCCOCCOCCOCCOCCOCCOC)cc3)c2)c(-c2cc(C(=O)NCc3cccc(C(F)(F)F)c3)ccn2)c1 [Example 272, 2-(2-(3-(1-(4-(2,5,8,11,14,17,20-heptaoxadocosan-22-yl(2-methoxyethyl)carbamoyl)phenylsulfonamido)-3,6,9,12-tetraoxapentadecan-15-yl)benzamido)-5-(diethylamino)phenyl)-N-(3-(trifluoromethyl)benzyl)isonicotinamide] | – | – | – | ≤ 10
1000 to 7940 | – | – | CCN(CC)c1ccc(NC(=O)c2cccc(CCCOCCOCCOCCOCCOCCOCCOCCOCCOCCC(=O)O)c2)c(-c2cc(C(=O)NCc3cccc(C(F)(F)F)c3)ccn2)c1 [Example 298, 31-(3-(4-(diethylamino)-2-(4-(3-(trifluoromethyl)benzylcarbamoyl)pyridin-2-yl)phenylcarbamoyl)phenyl)-4,7,10,13,16,19,22,25,28-nonaoxahentriacontan-1-oic acid] | – | – | – | 10 to 30
< 1000 | – | – | CCN(CC)c1ccc(NC(=O)c2cccc(CCCOCCOCCOCCOCCOCCOCCC(=O)O)c2)c(-c2cc(C(=O)NCc3cccc(C(F)(F)F)c3)ccn2)c1 [Example 299, 22-(3-(4-(diethylamino)-2-(4-(3-(trifluoromethyl)benzylcarbamoyl)pyridin-2-yl)phenylcarbamoyl)phenyl)-4,7,10,13,16,19-hexaoxadocosan-1-oic acid] | – | – | – | 10 to 30
< 1000 | – | – | CCN(CC)c1ccc(NC(=O)c2cccc(CCCOCCOCCOCCOCCOCCC(=O)O)c2)c(-c2cc(C(=O)NCc3cccc(C(F)(F)F)c3)ccn2)c1 [Example 300, 19-(3-(4-(diethylamino)-2-(4-(3-(trifluoromethyl)benzylcarbamoyl)pyridin-2-yl)phenylcarbamoyl)phenyl)-4,7,10,13,16-pentaoxanonadecan-1-oic acid] | – | – | – | ≤ 10
